Results on 30 compounds are retold here after publication PMC5513444, “The synthesis and evaluation of triazolopyrimidines as anti-tubercular agents” (Bioorganic & Medicinal Chemistry, 2017).

The subject of one series is M. tuberculosis H37Rv. Put plainly: MIC90 against M. tuberculosis in liquid medium. The format is cell-based, Mycobacterium tuberculosis. The conditions noted are these: liquid medium 7H9-Tw-OADC, aerobic, 5 days, average ± SD of two independent experiments; for MIC90: Mycobacterium tuberculosis, H37RV, 120 h, read-out: MIC (MIC90, minimum concentration required to inhibit growth of M. tuberculosis by 90%).

A further series has as its system HepG2 cells. Put plainly: Cytotoxicity against HepG2 cell line (CellTiter-Glo). In kind it is cell-based. The conditions noted are these: for IC50: Homo sapiens, 48 h, HepG2, 2 days incubation, read-out: IC50 (concentration required to reduce the viability of HepG2 cells by 50%); for Selectivity index (SI) = IC50/MIC90: HepG2 IC50 / M. tuberculosis MIC90. Background: In ATP-based viability assays light output follows the ATP content of the culture.

In brackets after ≈: the same amount, converted by molar mass. Bounds are passed on as bounds.

As usually defined, the melting point is the temperature of the solid-liquid transition.

Compound `COc1ccc(CCNc2cc(-c3ccc(C)cc3)nc3ncnn23)cc1` [Compound 9, N-(4-Methoxyphenethyl)-5-(p-tolyl)-[1,2,4]triazolo[1,5-a]pyrimidin-7-amine] came in with a melting point of 155 to 156 °C. In the series with M. tuberculosis H37Rv, the MIC90 is more than 20 µM. The IC50 with HepG2 cells was 37 µM.

`COc1ccc(CCNc2cc(-c3ccccn3)nc3nc(C)nn23)cc1` [Compound 67, N-(4-Methoxyphenethyl)-2-methyl-5-(pyridin-2-yl)-[1,2,4]triazolo[1,5-a]pyrimidin-7-amine]: the melting point lay in the range of 139 to 141 °C. Besides, the MIC90 with M. tuberculosis H37Rv came to 3.9 ± 0.21 µM (≈ 1.41 µg/mL). Moreover, in the series on HepG2 cells, the “Selectivity index (SI) = IC50/MIC90” value is reported as more than 26 and the IC50 was more than 100 µM.

With `c1ccc(CCNc2cc(-c3ccccn3)nc3ncnn23)nc1` [Compound 52, 5-(Pyridin-2-yl)-N-(2-(pyridin-2-yl)ethyl)-[1,2,4]triazolo[1,5-a]pyrimidin-7-amine], the melting point lay within 156 to 157 °C. In the series with M. tuberculosis H37Rv, the MIC90 was more than 20 µM. In the series on HepG2 cells, the IC50 was more than 100 µM.

`COc1ccc(CCNc2cc(-c3ccccn3)nc3ccnn23)cc1` [Compound 69, N-(4-Methoxyphenethyl)-5-(pyridin-2-yl)pyrazolo[1,5-a]pyrimidin-7-amine] displayed a melting point of 116 to 117 °C. Besides, in the series on M. tuberculosis H37Rv, the MIC90 turned out to be 2.5 ± 0.15 µM (≈ 0.864 µg/mL). In the series on HepG2 cells, the “Selectivity index (SI) = IC50/MIC90” value came out at 9 and the IC50 was found to be 23 µM.

The compound `COc1ccc(CCNc2cc(-c3ccccc3OC)nc3ncnn23)cc1` [Compound 8, N-(4-Methoxyphenethyl)-5-(2-methoxyphenyl)-[1,2,4]triazolo[1,5-a]pyrimidin-7-amine] returned a melting point of 148 to 149 °C. In addition, in the series with M. tuberculosis H37Rv, the MIC90 is more than 20 µM. Further, the IC50 with HepG2 cells came out at 87 µM.

As to `COc1ccc(CCNc2cc(C3CCCCC3)nc3ncnn23)cc1` [Compound 25, 5-Cyclohexyl-N-(4-methoxyphenethyl)-[1,2,4]triazolo[1,5-a]pyrimidin-7-amine], the melting point was in the range of 193 to 194 °C. In addition, the MIC90 with M. tuberculosis H37Rv was more than 20 µM. Also, the IC50 in the series with HepG2 cells stood at 47 µM.

In the case of `COc1ccc(CCNc2cc(Cc3ccccc3)nc3ncnn23)cc1` [Compound 19, 5-Benzyl-N-(4-methoxyphenethyl)-[1,2,4]triazolo[1,5-a]pyrimidin-7-amine], the melting point fell in the range of 119 to 121 °C. Besides, in the series on M. tuberculosis H37Rv, the MIC90 is more than 20 µM. For the same compound, the IC50 with HepG2 cells was determined as 57 µM.

For `COc1ccc(C2CCN(c3cc(-c4ccccn4)nc4ncnn34)C2)cc1` (stereo not shown) [Compound 62, 7-(3-(4-Methoxyphenyl)pyrrolidin-1-yl)-5-(pyridin-2-yl)-[1,2,4]triazolo[1,5-a]pyrimidine], the melting point is 222 to 223 °C. Besides, in the series on M. tuberculosis H37Rv, the MIC90 was more than 20 µM. Besides, in the series on HepG2 cells, the IC50 worked out at 23 µM.

In the case of `COc1ccc(CCNc2cc(-c3ccncc3)nc3ncnn23)cc1` [Compound 18, N-(4-Methoxyphenethyl)-5-(pyridin-4-yl)-[1,2,4]triazolo[1,5-a]pyrimidin-7-amine], the melting point is 217 to 219 °C. In addition, the MIC90 with M. tuberculosis H37Rv was more than 20 µM. Further, the IC50 with HepG2 cells stood at 69 µM.

Consider `Clc1ccc(CCNc2cc(-c3ccccn3)nc3ncnn23)cc1` [Compound 60, N-(4-Chlorophenethyl)-5-(pyridin-2-yl)-[1,2,4]triazolo[1,5-a]pyrimidin-7-amine], for which the MIC90 in the series with M. tuberculosis H37Rv stood at 0.76 ± 0.25 µM (≈ 0.267 µg/mL). For the same compound, in the series with HepG2 cells, the “Selectivity index (SI) = IC50/MIC90” value is more than 135 and the IC50 was more than 100 µM.

For the compound `COc1ccc(CCNc2cc(C3CC3)nc3ncnn23)cc1` [Compound 22], the MIC90 with M. tuberculosis H37Rv was 5.8 ± 1.6 µM (≈ 1.79 µg/mL). Further, in the series on HepG2 cells, the “Selectivity index (SI) = IC50/MIC90” value was more than 17 and the IC50 was more than 100 µM.

With `c1ccc(-c2cc(NCCc3ccncc3)n3ncnc3n2)cc1` [Compound 43, 5-Phenyl-N-(2-(pyridin-4-yl)ethyl)-[1,2,4]triazolo[1,5-a]pyrimidin-7-amine], the melting point lay within 231 to 233 °C. The MIC90 in the series on M. tuberculosis H37Rv is more than 20 µM. In the series on HepG2 cells, the IC50 is more than 100 µM.

Take `COCCNc1cc(-c2ccccc2)nc2ncnn12` [Compound 33, N-(2-Methoxyethyl)-5-phenyl-[1,2,4]triazolo[1,5-a]pyrimidin-7-amine]: the melting point lay within 116 to 118 °C. Further, the MIC90 in the series on M. tuberculosis H37Rv is more than 20 µM. Besides, the IC50 in the series with HepG2 cells is more than 100 µM.

Compound `c1ccc(-c2cc(NCCc3cccnc3)n3ncnc3n2)nc1` [Compound 53, 5-(Pyridin-2-yl)-N-(2-(pyridin-3-yl)ethyl)-[1,2,4]triazolo[1,5-a]pyrimidin-7-amine] gave a melting point of 212 to 213 °C. Further, the MIC90 in the series on M. tuberculosis H37Rv is more than 20 µM. Further, in the series on HepG2 cells, the IC50 was more than 100 µM.

`Nc1cc(-c2ccccc2)nc2ncnn12` [Compound 28, 5-Phenyl-[1,2,4]triazolo[1,5-a]pyrimidin-7-amine]: the melting point fell in the range of 302 to 304 °C. Moreover, in the series on M. tuberculosis H37Rv, the MIC90 is more than 20 µM. Further, the IC50 with HepG2 cells was more than 20 µM.

Turning to `COc1ccc(CCNc2cc(-c3ccccc3)nc3ncnn23)cc1` [Compound 1, N-(4-methoxyphenethyl)-5-phenyl-[1,2,4]triazolo[1,5-a]pyrimidin-7-amine], in the series on M. tuberculosis H37Rv, the MIC90 is 3.1 µM (≈ 1.07 µg/mL) and the “MIC (MIC90, minimum concentration required to inhibit growth of M. tuberculosis by 90%)” value is 3.1 ± 1.3 µM. In the series with HepG2 cells, the “Selectivity index (SI) = IC50/MIC90” value is reported as more than 32 and the IC50 is more than 100 µM.

Take `FC(F)(F)Oc1ccc(CCNc2cc(-c3ccccn3)nc3ncnn23)cc1` [Compound 59, 5-(Pyridin-2-yl)-N-(4-(trifluoromethoxy)phenethyl)-[1,2,4]triazolo[1,5-a]pyrimidin-7-amine]: the melting point lay within 163 to 165 °C. The MIC90 in the series with M. tuberculosis H37Rv was 1.6 ± 1.1 µM (≈ 0.641 µg/mL). Also, in the series with HepG2 cells, the “Selectivity index (SI) = IC50/MIC90” value was more than 72 and the IC50 is more than 100 µM.

As to `FC(F)(F)c1ccc(CCNc2cc(-c3ccccn3)nc3ncnn23)cc1` [Compound 58, 5-(Pyridin-2-yl)-N-(4-(trifluoromethyl)phenethyl)-[1,2,4]triazolo[1,5-a]pyrimidin-7-amine], the MIC90 in the series on M. tuberculosis H37Rv was found to be 0.98 ± 0.4 µM (≈ 0.377 µg/mL). Also, in the series on HepG2 cells, the “Selectivity index (SI) = IC50/MIC90” value was more than 119 and the IC50 is more than 100 µM.

Take `COc1ccc(CCN(C)c2cc(-c3ccccc3)nc3ncnn23)cc1` [Compound 61, N-(4-Methoxyphenethyl)-N-methyl-5-phenyl-[1,2,4]triazolo[1,5-a]pyrimidin-7-amine]: the melting point is 170 to 171 °C. Besides, the MIC90 in the series on M. tuberculosis H37Rv is more than 20 µM. Also, the IC50 with HepG2 cells was 17 µM.

Regarding `Fc1ccc(CCNc2cc(-c3ccccc3)nc3ncnn23)cc1` [Compound 46, N-(4-Fluorophenethyl)-5-phenyl-[1,2,4]triazolo[1,5-a]pyrimidin-7-amine], the melting point lay in the range of 169 to 170 °C. The MIC90 in the series with M. tuberculosis H37Rv is more than 20 µM. The IC50 in the series with HepG2 cells came to 50 µM.

Turning to `c1ccc(-c2cc(NCCc3ccccn3)n3ncnc3n2)cc1` [Compound 41, 5-Phenyl-N-(2-(pyridin-2-yl)ethyl)-[1,2,4]triazolo[1,5-a]pyrimidin-7-amine], the melting point lay within 111 to 114 °C. In the series with M. tuberculosis H37Rv, the MIC90 is more than 20 µM. Further, the IC50 in the series on HepG2 cells is more than 100 µM.

`CCCNc1cc(-c2ccccc2)nc2ncnn12` [Compound 31, 5-Phenyl-N-propyl-[1,2,4]triazolo[1,5-a]pyrimidin-7-amine] displayed a melting point of 139 to 140 °C. Moreover, the MIC90 in the series with M. tuberculosis H37Rv is more than 20 µM. In the series with HepG2 cells, the IC50 was 94 µM.

On to `c1ccc(-c2cc(NC3CCC3)n3ncnc3n2)cc1` [Compound 35, N-Cyclobutyl-5-phenyl-[1,2,4]triazolo[1,5-a]pyrimidin-7-amine], for which the melting point is 193 to 194 °C. For the same compound, in the series with M. tuberculosis H37Rv, the MIC90 was more than 20 µM. Besides, the IC50 in the series on HepG2 cells is 57 µM.

The compound `COc1ccc(CCNc2cc(-c3ccccn3)nc3nccn23)cc1` [Compound 70, N-(4-Methoxyphenethyl)-7-(pyridin-2-yl)imidazo[1,2-a]pyrimidin-5-amine] returned a melting point of 234 to 235 °C. Moreover, in the series with M. tuberculosis H37Rv, the MIC90 turned out to be 0.22 ± 0.07 µM (≈ 0.076 µg/mL). Moreover, in the series on HepG2 cells, the “Selectivity index (SI) = IC50/MIC90” value turned out to be 142 and the IC50 amounted to 30 µM.

In turn, `c1ccc(-c2ccn3ncnc3n2)cc1` [Compound 27, 5-Phenyl-[1,2,4]triazolo[1,5-a]pyrimidine] registered a melting point of 179 to 181 °C. Further, the MIC90 in the series with M. tuberculosis H37Rv was more than 20 µM. In addition, the IC50 in the series with HepG2 cells was more than 20 µM.

In the case of `COc1ccc(Nc2cc(-c3ccccc3)nc3ncnn23)cc1` [Compound 37, N-(4-Methoxyphenyl)-5-phenyl-[1,2,4]triazolo[1,5-a]pyrimidin-7-amine], the melting point lay in the range of 200 to 202 °C. The MIC90 in the series with M. tuberculosis H37Rv was more than 20 µM. Besides, in the series with HepG2 cells, the IC50 came to 49 µM.

As for `COc1ccc(C2CCCN(c3cc(-c4ccccn4)nc4ncnn34)C2)cc1` (stereo not shown) [Compound 63, 7-(3-(4-Methoxyphenyl)piperidin-1-yl)-5-(pyridin-2-yl)-[1,2,4]triazolo[1,5-a]pyrimidine], in the series with M. tuberculosis H37Rv, the MIC90 is more than 20 µM. For the same compound, in the series with HepG2 cells, the IC50 was 16 µM.

Consider `COc1ccc(C2CN(c3cc(-c4ccccn4)nc4ncnn34)CCO2)cc1` (stereo not shown) [Compound 64, 2-(4-Methoxyphenyl)-4-(5-(pyridin-2-yl)-[1,2,4]triazolo[1,5-a]pyrimidin-7-yl)morpholine], for which, in the series with M. tuberculosis H37Rv, the MIC90 is more than 20 µM. Further, the IC50 with HepG2 cells was 50 µM.

As to `CCc1ccc(-c2cc(NCCc3ccc(OC)cc3)n3ncnc3n2)cc1` [Compound 10, 5-(4-Ethylphenyl)-N-(4-methoxyphenethyl)-[1,2,4]triazolo[1,5-a]pyrimidin-7-amine], the MIC90 with M. tuberculosis H37Rv was more than 20 µM. In addition, in the series with HepG2 cells, the IC50 was more than 100 µM.

On to `COc1ccc(CCNc2cc(-c3ccccc3Cl)nc3ncnn23)cc1` [Compound 12, 5-(2-Chlorophenyl)-N-(4-methoxyphenethyl)-[1,2,4]triazolo[1,5-a]pyrimidin-7-amine], for which, in the series with M. tuberculosis H37Rv, the MIC90 is more than 20 µM. The IC50 in the series with HepG2 cells is more than 100 µM.
